Reference: article PMC5218480 (PLoS ONE, 2017)

Test system: MV-4-11 cells
Assay: Gene expression microarray analysis (Affymetrix PrimeView) and GSEA
Format: cell-based, human
Set-up: RFU PODN (11730768_x_at) / Fold change /veh PODN (11730768_x_at) / RFU LINC00158 (11744669_a_at) / Fold change /veh LINC00158 (11744669_a_at) / RFU DUSP10 (11751237_a_at) / Fold change /veh DUSP10 (11751237_a_at) / RFU ID3 (11757404_x_at) / Fold change /veh ID3 (11757404_x_at) / RFU PLEKHG5 (11737974_s_at) / Fold change /veh PLEKHG5 (11737974_s_at) / RFU LRRC4B (11730491_at) / Fold change /veh LRRC4B (11730491_at) / RFU GIMAP4 (11747438_a_at) / Fold change /veh GIMAP4 (11747438_a_at) / RFU KRT8 (11758183_x_at) / Fold change /veh KRT8 (11758183_x_at) / RFU CNN1 (11734310_a_at) / Fold change /veh CNN1 (11734310_a_at) / RFU VPS37D (11726825_at) / Fold change /veh VPS37D (11726825_at) / RFU C10orf10 (11716522_x_at) / Fold change /veh C10orf10 (11716522_x_at) / RFU KIR2DL2 /// KIR2DL4 /// KIR2DL5A /// KIR2DL5B /// KIR2DS1 /// KIR2DS2 /// KIR2DS3 /// KIR2DS4 /// KIR3DL3 /// KIR3DL3 /// KIR3DS1 (11738374_at) / Fold change /veh KIR2DL2 /// KIR2DL4 /// KIR2DL5A /// KIR2DL5B /// KIR2DS1 /// KIR2DS2 /// KIR2DS3 /// KIR2DS4 /// KIR3DL3 /// KIR3DL3 /// KIR3DS1 (11738374_at) / RFU C1QL1 (11718748_at) / Fold change /veh C1QL1 (11718748_at) / RFU TMPRSS4 (11747572_a_at) / Fold change /veh TMPRSS4 (11747572_a_at) / RFU HAMP (11756126_x_at) / Fold change /veh HAMP (11756126_x_at) / RFU RNFT2 (11725882_a_at) / Fold change /veh RNFT2 (11725882_a_at) / RFU NR4A2 (11747474_a_at) / Fold change /veh NR4A2 (11747474_a_at) / RFU ABCC12 (11746883_a_at) / Fold change /veh ABCC12 (11746883_a_at) / RFU TMEM136 (11760407_x_at) / Fold change /veh TMEM136 (11760407_x_at) / RFU CLDN22 /// WWC2 (11732394_at) / Fold change /veh CLDN22 /// WWC2 (11732394_at) / RFU HLA-DPB1 (11760878_x_at) / Fold change /veh HLA-DPB1 (11760878_x_at) / RFU SPINT1 (11716480_a_at) / Fold change /veh SPINT1 (11716480_a_at) / RFU GAP43 (11754022_s_at) / Fold change /veh GAP43 (11754022_s_at) / RFU A4GNT (11735810_at) / Fold change /veh A4GNT (11735810_at) / RFU PRB3 (11715151_x_at) / Fold change /veh PRB3 (11715151_x_at) / RFU TUBB4B (11761932_at) / Fold change /veh TUBB4B (11761932_at) / RFU CAPN14 (11732068_a_at) / Fold change /veh CAPN14 (11732068_a_at) / RFU TMCC2 (11721928_a_at) / Fold change /veh TMCC2 (11721928_a_at) / RFU IRGQ (11745062_a_at) / Fold change /veh IRGQ (11745062_a_at) / RFU FAM174B (11720279_a_at) / Fold change /veh FAM174B (11720279_a_at) / RFU TMPRSS4 (11748680_a_at) / Fold change /veh TMPRSS4 (11748680_a_at) / RFU FAM212B (11763350_a_at) / Fold change /veh FAM212B (11763350_a_at) / RFU PLEKHG5 (11743358_a_at) / Fold change /veh PLEKHG5 (11743358_a_at) / RFU ZSCAN30 (11745921_a_at) / Fold change /veh ZSCAN30 (11745921_a_at) / RFU CMKLR1 (11741424_a_at) / Fold change /veh CMKLR1 (11741424_a_at) / RFU LOC101060620 /// MAPK8IP1 (11723275_at) / Fold change /veh LOC101060620 /// MAPK8IP1 (11723275_at) / RFU SPTSSB (11747773_x_at) / Fold change /veh SPTSSB (11747773_x_at) / RFU PRSS12 (11739890_at) / Fold change /veh PRSS12 (11739890_at) / RFU BIN1 (11741810_x_at) / Fold change /veh BIN1 (11741810_x_at) / RFU WNT11 (11732464_a_at) / Fold change /veh WNT11 (11732464_a_at) / RFU C10orf10 (11716521_a_at) / Fold change /veh C10orf10 (11716521_a_at) / RFU C5orf56 (11738089_at) / Fold change /veh C5orf56 (11738089_at) / RFU CYB561 (11721691_x_at) / Fold change /veh CYB561 (11721691_x_at) / RFU ANKRD19P (11752326_a_at) / Fold change /veh ANKRD19P (11752326_a_at) / RFU OR2T12 /// OR2T33 /// OR2T8 (11738714_s_at) / Fold change /veh OR2T12 /// OR2T33 /// OR2T8 (11738714_s_at) / RFU VCAN (11748164_a_at) / Fold change /veh VCAN (11748164_a_at) / RFU JSRP1 (11732532_at) / Fold change /veh JSRP1 (11732532_at) / RFU KRTAP10-11 (11738290_x_at) / Fold change /veh KRTAP10-11 (11738290_x_at) / RFU MYO3A (11730013_a_at) / Fold change /veh MYO3A (11730013_a_at) / RFU EBF3 (11725865_a_at) / Fold change /veh EBF3 (11725865_a_at) / RFU CAMK2N1 (11719241_x_at) / Fold change /veh CAMK2N1 (11719241_x_at) / RFU C5orf56 (11738088_a_at) / Fold change /veh C5orf56 (11738088_a_at) / RFU OLFML3 (11715873_a_at) / Fold change /veh OLFML3 (11715873_a_at) / RFU LOC100653217 /// NTM (11731650_a_at) / Fold change /veh LOC100653217 /// NTM (11731650_a_at) / RFU MAPK11 (11762145_a_at) / Fold change /veh MAPK11 (11762145_a_at) / RFU FIZ1 (11724087_x_at) / Fold change /veh FIZ1 (11724087_x_at) / RFU OASL (11726364_x_at) / Fold change /veh OASL (11726364_x_at) / RFU SOX15 (11748057_x_at) / Fold change /veh SOX15 (11748057_x_at) / RFU CD79A (11719716_a_at) / Fold change /veh CD79A (11719716_a_at) / RFU HIST1H1D (11736915_at) / Fold change /veh HIST1H1D (11736915_at) / RFU CASKIN2 (11723855_a_at) / Fold change /veh CASKIN2 (11723855_a_at) / RFU LOC730098 (11760151_x_at) / Fold change /veh LOC730098 (11760151_x_at) / RFU OR4N2 (11742367_at) / Fold change /veh OR4N2 (11742367_at) / RFU PRRT2 (11749266_a_at) / Fold change /veh PRRT2 (11749266_a_at) / RFU SNX32 (11753110_a_at) / Fold change /veh SNX32 (11753110_a_at) / RFU CDHR5 (11726645_a_at) / Fold change /veh CDHR5 (11726645_a_at) / RFU RCAN1 (11760418_a_at) / Fold change /veh RCAN1 (11760418_a_at) / RFU FAM167A (11723789_a_at) / Fold change /veh FAM167A (11723789_a_at) / RFU FAM26E (11764081_at) / Fold change /veh FAM26E (11764081_at) / RFU ISYNA1 (11749810_s_at) / Fold change /veh ISYNA1 (11749810_s_at) / RFU ACY1 (11761880_at) / Fold change /veh ACY1 (11761880_at) / RFU 11764098_at / Fold change /veh 11764098_at / RFU SAMD14 (11745864_x_at) / Fold change /veh SAMD14 (11745864_x_at) / RFU NPB (11741838_a_at) / Fold change /veh NPB (11741838_a_at) / RFU TMPRSS6 (11731388_a_at) / Fold change /veh TMPRSS6 (11731388_a_at) / RFU KRTAP10-2 (11738614_at) / Fold change /veh KRTAP10-2 (11738614_at) / RFU ARHGAP8 /// PRR5-ARHGAP8 (11727945_x_at) / Fold change /veh ARHGAP8 /// PRR5-ARHGAP8 (11727945_x_at) / RFU KRTAP5-7 /// NADSYN1 (11734609_at) / Fold change /veh KRTAP5-7 /// NADSYN1 (11734609_at) / RFU RASL12 (11751679_a_at) / Fold change /veh RASL12 (11751679_a_at) / RFU CDKN2B (11736163_a_at) / Fold change /veh CDKN2B (11736163_a_at) / RFU PRF1 (11729649_at) / Fold change /veh PRF1 (11729649_at) / RFU, ZNF638 /// ZNF638-IT1 / Fold change vs veh, ZNF638 /// ZNF638-IT1 / RFU, PANK3 / Fold change vs veh, PANK3 / RFU, SH3YL1 / Fold change vs veh, SH3YL1 / RFU, ZEB2 / Fold change vs veh, ZEB2 / RFU, NRIP1 / Fold change vs veh, NRIP1 / RFU, PTTG1IP / Fold change vs veh, PTTG1IP / RFU, CAPN2 / Fold change vs veh, CAPN2 / RFU, MED14 / Fold change vs veh, MED14 / RFU, SNORA58 / Fold change vs veh, SNORA58 / RFU, C1orf63 / Fold change vs veh, C1orf63 / RFU, LRRFIP1 / Fold change vs veh, LRRFIP1 / RFU, NDUFAF7 / Fold change vs veh, NDUFAF7 / RFU, SLC12A2 / Fold change vs veh, SLC12A2 / RFU, IBTK / Fold change vs veh, IBTK / RFU, ESF1 / Fold change vs veh, ESF1 / Fold change vs veh, TMEM50B / RFU, TAOK1 / Fold change vs veh, TAOK1 / RFU, ACBD3 / Fold change vs veh, ACBD3 / RFU, TMA16 / Fold change vs veh, TMA16 / RFU, RWDD3 / Fold change vs veh, RWDD3 / RFU, BCAT1 / Fold change vs veh, BCAT1 / RFU, EDEM3 / Fold change vs veh, EDEM3 / RFU, TMEM33 / Fold change vs veh, TMEM33 / RFU, WDR75 / Fold change vs veh, WDR75 / RFU, AHCTF1 / Fold change vs veh, AHCTF1 / RFU, TFRC / Fold change vs veh, TFRC / RFU, ZDHHC17 / Fold change vs veh, ZDHHC17 / RFU, NOM1 / Fold change vs veh, NOM1 / RFU, ARL8B / Fold change vs veh, ARL8B / RFU, ZBTB11 / Fold change vs veh, ZBTB11 / RFU, TAMM41 / Fold change vs veh, TAMM41 / RFU, KIAA1704 /// LOC100996395 / Fold change vs veh, KIAA1704 /// LOC100996395 / RFU, ING1 / Fold change vs veh, ING1 / RFU, TRMT61B / Fold change vs veh, TRMT61B / RFU, FUBP3 / Fold change vs veh, FUBP3 / RFU, TP53 / Fold change vs veh, TP53 / RFU, TNKS2 / Fold change vs veh, TNKS2 / RFU, ZFP14 / Fold change vs veh, ZFP14 / RFU, ACTR2 / Fold change vs veh, ACTR2 / RFU, PPP3R1 / Fold change vs veh, PPP3R1 / RFU, PIK3R1 / Fold change vs veh, PIK3R1 / RFU, HNRNPA1 / Fold change vs veh, HNRNPA1 / RFU, RNF170 / Fold change vs veh, RNF170 / RFU, ZNF28 / Fold change vs veh, ZNF28 / RFU, RNGTT / Fold change vs veh, RNGTT / RFU, OGT / Fold change vs veh, OGT / RFU, BRD1 / Fold change vs veh, BRD1 / RFU, MARS / Fold change vs veh, MARS / RFU, ZNF655 / Fold change vs veh, ZNF655 / RFU, FAHD1 / Fold change vs veh, FAHD1 / RFU, BDP1 / Fold change vs veh, BDP1 / RFU, LRRCC1 / Fold change vs veh, LRRCC1 / RFU, ARID1A / Fold change vs veh, ARID1A / RFU, ZNF146 / Fold change vs veh, ZNF146 / RFU, ZNF330 / Fold change vs veh, ZNF330 / RFU, GPN3 / Fold change vs veh, GPN3 / RFU, C9orf123 / Fold change vs veh, C9orf123 / RFU, N4BP2L2 / Fold change vs veh, N4BP2L2 / RFU, ARFIP1 / Fold change vs veh, ARFIP1 / RFU, FAM179B / Fold change vs veh, FAM179B / RFU, BCL10 / Fold change vs veh, BCL10 / RFU, UHRF1BP1L / Fold change vs veh, UHRF1BP1L / RFU, BET1 / Fold change vs veh, BET1 / RFU, CNOT2 / Fold change vs veh, CNOT2 / RFU, ZNF268 / Fold change vs veh, ZNF268 / Fold change vs veh, ZNF507 / RFU, DGCR2 / Fold change vs veh, DGCR2 / RFU, WDSUB1 / Fold change vs veh, WDSUB1 / Fold change vs veh, HSP90B1 /// MIR3652 / RFU, ADSS / Fold change vs veh, ADSS / RFU, GK / Fold change vs veh, GK / RFU, ZNF148 / Fold change vs veh, ZNF148 / RFU, TAF9 / Fold change vs veh, TAF9 / RFU, SLC1A5 / Fold change vs veh, SLC1A5 / RFU, SLMO2 / Fold change vs veh, SLMO2 / RFU, ABCC4 / Fold change vs veh, ABCC4 / RFU, LOC101060439 /// RAP1B / Fold change vs veh, LOC101060439 /// RAP1B / RFU, RFX7 / Fold change vs veh, RFX7 / RFU, GTPBP10 / Fold change vs veh, GTPBP10 / RFU, CNEP1R1 / Fold change vs veh, CNEP1R1 / RFU, BIVM-ERCC5 /// ERCC5 / Fold change vs veh, BIVM-ERCC5 /// ERCC5 / RFU, ILF3 / Fold change vs veh, ILF3 / RFU 11762660_at / Fold change /veh 11762660_at / RFU VCAN (11757783_s_at) / Fold change /veh VCAN (11757783_s_at) / RFU DDX43 (11728927_at) / Fold change /veh DDX43 (11728927_at) / RFU KRT8 (11758188_x_at) / Fold change /veh KRT8 (11758188_x_at) / RFU NKD1 (11759106_at) / Fold change /veh NKD1 (11759106_at) / RFU SRD5A1 (11742802_a_at) / Fold change /veh SRD5A1 (11742802_a_at) / RFU TPSAB1 /// TPSB2 (11721975_s_at) / Fold change /veh TPSAB1 /// TPSB2 (11721975_s_at) / RFU GSTM3 (11746129_a_at) / Fold change /veh GSTM3 (11746129_a_at) / RFU IL23R (11737362_x_at) / Fold change /veh IL23R (11737362_x_at) / RFU TMEM51 (11727254_a_at) / Fold change /veh TMEM51 (11727254_a_at) / RFU PIWIL2 (11732686_x_at) / Fold change /veh PIWIL2 (11732686_x_at) / RFU ORM1 (11744905_x_at) / Fold change /veh ORM1 (11744905_x_at) / RFU CCDC152 (11743942_at) / Fold change /veh CCDC152 (11743942_at) / RFU ECM1 (11717891_a_at) / Fold change /veh ECM1 (11717891_a_at) / RFU IL23R (11748794_a_at) / Fold change /veh IL23R (11748794_a_at) / RFU TNFAIP8L3 (11732012_x_at) / Fold change /veh TNFAIP8L3 (11732012_x_at) / RFU MBOAT4 (11741988_at) / Fold change /veh MBOAT4 (11741988_at) / RFU 11764193_at / Fold change /veh 11764193_at / RFU TMEM53 (11763286_at) / Fold change /veh TMEM53 (11763286_at) / RFU MAGEB2 (11727129_at) / Fold change /veh MAGEB2 (11727129_at) / RFU TMEM200A (11744735_a_at) / Fold change /veh TMEM200A (11744735_a_at) / RFU CCDC152 (11751479_a_at) / Fold change /veh CCDC152 (11751479_a_at) / RFU FAM211A (11726209_a_at) / Fold change /veh FAM211A (11726209_a_at) / RFU RGS16 (11746705_a_at) / Fold change /veh RGS16 (11746705_a_at) / RFU VCAN (11755009_s_at) / Fold change /veh VCAN (11755009_s_at) / RFU RHOB (11743442_s_at) / Fold change /veh RHOB (11743442_s_at) / RFU RGS16 (11720943_a_at) / Fold change /veh RGS16 (11720943_a_at) / RFU RGS16 (11720944_at) / Fold change /veh RGS16 (11720944_at) / RFU, VPS4B / Fold change vs veh, VPS4B / RFU, CREB1 / Fold change vs veh, CREB1 / RFU, DNAJC13 / Fold change vs veh, DNAJC13 / RFU, GNAQ / Fold change vs veh, GNAQ / RFU, CDK5R1 / Fold change vs veh, CDK5R1 / RFU, ZRANB3 / Fold change vs veh, ZRANB3 / RFU, CUL4A / Fold change vs veh, CUL4A / RFU, CCNY / Fold change vs veh, CCNY / RFU, UFL1 / Fold change vs veh, UFL1 / RFU, COG3 / Fold change vs veh, COG3 / RFU, DIAPH2 / Fold change vs veh, DIAPH2 / RFU, SKA2 / Fold change vs veh, SKA2 / RFU, AFF3 / Fold change vs veh, AFF3 / RFU, LMF1 / Fold change vs veh, LMF1 / RFU, IPO11 / Fold change vs veh, IPO11 / RFU, DFFB / Fold change vs veh, DFFB / RFU, FOXP1 / Fold change vs veh, FOXP1 / RFU, CARD8 / Fold change vs veh, CARD8 / RFU, STRN3 / Fold change vs veh, STRN3 / RFU, ADK / Fold change vs veh, ADK / RFU, RASSF2 / Fold change vs veh, RASSF2 / RFU, WIPF1 / Fold change vs veh, WIPF1 / RFU, LARP1B / Fold change vs veh, LARP1B / RFU, RASA1 / Fold change vs veh, RASA1 / RFU, RB1 / Fold change vs veh, RB1 / RFU, PPFIA1 / Fold change vs veh, PPFIA1 / RFU, MAT2A / Fold change vs veh, MAT2A / RFU, CCT5 / Fold change vs veh, CCT5 / RFU, WDR92 / Fold change vs veh, WDR92 / RFU, CUX1 / Fold change vs veh, CUX1 / RFU, TTC7A / Fold change vs veh, TTC7A / RFU, TMEM135 / Fold change vs veh, TMEM135 / RFU, DEPTOR / Fold change vs veh, DEPTOR / RFU, CPM / Fold change vs veh, CPM / RFU, DNAJB6 / Fold change vs veh, DNAJB6 / RFU, CACNA2D3 / Fold change vs veh, CACNA2D3 / RFU, DTX4 / Fold change vs veh, DTX4 / RFU, TFCP2 / Fold change vs veh, TFCP2 / RFU, GMCL1 /// GMCL1P1 / Fold change vs veh, GMCL1 /// GMCL1P1 / RFU, AEBP2 / Fold change vs veh, AEBP2 / RFU, SNHG1 /// SNORD22 /// SNORD25 /// SNORD26 /// SNORD27 /// SNORD28 /// SNORD29 /// SNORD31 / Fold change vs veh, SNHG1 /// SNORD22 /// SNORD25 /// SNORD26 /// SNORD27 /// SNORD28 /// SNORD29 /// SNORD31 / Fold change (Aza/veh), C12orf56 (ProbeSet 11735607_a_at) / Fold change (ACY-1035/veh), C12orf56 (ProbeSet 11735607_a_at) / Fold change (Aza/veh), FGFR1OP (ProbeSet 11751329_s_at) / Fold change (ACY-1035/veh), FGFR1OP (ProbeSet 11751329_s_at) / Fold change (Aza/veh), VPS36 (ProbeSet 11739960_a_at) / Fold change (ACY-1035/veh), VPS36 (ProbeSet 11739960_a_at) / RFU SYPL1 (11715823_x_at) / Fold change /veh SYPL1 (11715823_x_at) / RFU IGFBP7 (11715501_s_at) / Fold change /veh IGFBP7 (11715501_s_at) / RFU REEP3 (11722064_at) / Fold change /veh REEP3 (11722064_at) / RFU IGLL1 (11728026_x_at) / Fold change /veh IGLL1 (11728026_x_at): dose or concentration left out as unconfirmed
Conditions: MV-4-11 cells, 48 hours

Nc1ccc(-c2cccs2)cc1NC(=O)c1ccc2c(c1)cc(C1CC1)n2CCN1CCOCC1 [ACY-1035]
Fold change /veh 11762660_at: 0.98
